Experimental data from patent publication EP0179667B1, “N6-substituted adenosines” (priority 1984, dated 1986).

Key:
[1] = tested on: conscious rat; test: Antihypertensive evaluation (AHP3): direct monitoring of aortic blood pressure and heart rate; type: in vivo
Text: This test procedure is described in the following paragraphs. A Method for the Direct Monitoring of Aortic Blood Pressure and Heart Rate from Conscious Rats The continuous monitoring of pulsatile blood pressure (BP) from unrestrained conscious rats surgically equipped with polyethylene cannulas was accomplished by means of a computer assisted data capture scheme (CADCS). The basic elements of the methodology are the cannulation procedure and the CADCS. Cannulation Procedure: Rats were anesthetized with Telazol (1:1 tiletamine HCI and zolazepam HCI); 20-40 mg/kg IM and the descending aorta exposed via a midline incision. Cannulas fabricated from polyethylene tubing were inserted into the aorta via an undersized puncture hole below the renal arteries. […] The cannulas, consisting of a PE100 (0.86 mm ID) body and a PE50 (0.58 mm ID) tip, were attached to a trocar, inserted through the psoas muscle, and passed subcutaneously along the midline of the back and externalized between the ears. The cannulas were anchored to the posas muscle and between the scaluale (3-0 green braided suture). The midline incision was closed in two steps (muscle first, skin second) using continuous over-and over sutures (4-0 chronic). Each rat was then given penicillin 30,000 units subcutaneously (Penicillin G Procaine Sterile Suspension). The rats were fitted with a harness-spring-swivel assembly designed to protect the cannula and to provide the rat relative freedom of movement. […] While on test, each rat received a continuous slow infusion of heparinized saline solution (approximately 400 I or 40 units of heparin per 24 hour period) to prevent clot formation. […] The data were first stored on the data concentrator disk and then transferred to a magnetic tape for analysis and report generation by the main research computer. The overall scheme involved modulating the primary signal from the pressure transducer, generating the primary data set of the one-minute values for systolic, diastolic, and mean blood pressures and heart rate by the in-lab microcomputer and the storage, analysis, and report generation by the main research computer. The transducers were connected to analog signal conditioning mocules. The modules provided a regulated excitation voltage for the transducers, amplification as required to interface the microprocessors and an active low pass filter to compensate for the pressure wave form distortion produced by the flexible, fluid filled, narrow cannula. […] The microcomputer controlled the sequential acqusition of data from the modular interface units through an internal synchronous time-of-day clock/time base generator. […] The microcomputer processed each blood pressure sample as it was received to produce "running average" values for heart rate, and mean, systolic and diastolic blood pressures.

[2] = tested on: Swiss-Webster male mice; test: Mouse Activity and Screen Test Procedure (MAST): screen test (ST); type: in vivo; conditions: one hour postinjection
Text: The compounds of the invention are new chemical substances which are useful as pharmaceutical agents for the treatment of psychoses. The antipsychotic activity of representative compounds of the invention was established by the Mouse Activity and Screen Test Procedrue (MAST) described below.
Nine unfasted Swiss-Webster male mice weighing 20-30 g equally divided into three groups for each drug dose to be tested. That is, data for each dose level was generated by three separated groups of three mice each.
A minimum of three dose levels (10, 30, and 100 mg/kg) are tested for each drug. Treatments are administered intraperitoneally one hour prior to testing. All dosages are calculated as parent compound and given in volumes of 10 ml/kg. Compounds are dissolved or suspended in 0.2% Methocel. Control animals are injected with Methocel.
Testing: A two part testing procedure is started one hour postinjection. First, the screen test (ST) is performed (see Pharmac. Biochem. Behav. 6, 351-353, 1977). Briefly this test consists of placing mice on individual wire screens which are then rotated 180 degrees at the start of a 60 second observation period. The number of mice falling off the inverted screen is recorded.
Data: The data obtained from the screen test are expressed as percent of mice falling off the screen. Data derived from locomotor activity of drug treated mice are compared to the activity of vehicle treated animals and are expressed as percent inhibition of spontaneous locomotion. All percentages reported for inhibition of locomotion (LI) are based upon data accumulated for one hour. Both phases of testing are graded: A=60-100%; G=31-59%; and N=0-30%. An overall dose rating is obtained by the following criteria:
LAD refers to the lowest dose at which an A rating is achieved. […] Utilizing this procedure, an overall dose rating of A was obtained for the noted compound at the indicated dose. The compounds are identified in the Examples.

For `OC[C@H]1O[C@H](n2cnc3c(NC4CCCc5ccccc54)ncnc32)[C@H](O)[C@@H]1O` (stereo partly drawn) [Example 3, (S)-N^6-[1-Tetralinyl]-adenosine], which “change in HR (Heart Rate)” value ([1]; 10 mg/kg, Hour 5, conscious rat) is on record?
Its value is 0%.

What about the Screen test failure ([2]; 0.1 mg/kg intraperitoneally) of the same compound?
The Screen test failure was 11%.

What about the Screen test failure ([2]; 0.3 mg/kg intraperitoneally) of the same compound?
Its Screen test failure is 0%.

And the Screen test failure ([2]; 1 mg/kg intraperitoneally)?
The Screen test failure was 22%.

What about the Screen test failure ([2]; 3 mg/kg intraperitoneally) of the same compound?
Its Screen test failure is 0%.

What about the Screen test failure ([2]; 10 mg/kg intraperitoneally) of the same compound?
The Screen test failure was 0%.

And the Screen test failure ([2]; 30 mg/kg intraperitoneally)?
Its Screen test failure is 11%.

Which results are given for `COc1ccc2c(c1)C(Nc1ncnc3c1ncn3[C@@H]1O[C@H](CO)[C@@H](O)[C@H]1O)CCC2` (single isomer, unassigned) [Example 5, N6-[1-(7-Methoxy)-tetralinyl]-adenosine]?
change in HR (Heart Rate) ([1]; 3 mg/kg, Hour 1, conscious rat): 0%; Screen test failure ([2]; 1 mg/kg intraperitoneally): 0%; Screen test failure ([2]; 3 mg/kg intraperitoneally): 11%; Screen test failure ([2]; 10 mg/kg intraperitoneally): 11%

`OC[C@H]1O[C@@H](n2cnc3c(NC4CCCc5c(O)cccc54)ncnc32)[C@H](O)[C@@H]1O` (stereo partly shown) [Example 16, N^6-[1-(5-hydroxy)-tetralinyl]-adenosine] was tested. Which “change in HR (Heart Rate)” value ([1]; 3 mg/kg, Hour 9, conscious rat) did it give?
Its value is 0%.

What about the Screen test failure ([2]; 3 mg/kg intraperitoneally) of the same compound?
The Screen test failure was 0%.

And the Screen test failure ([2]; 10 mg/kg intraperitoneally)?
Its Screen test failure is 0%.

What about the Screen test failure ([2]; 30 mg/kg intraperitoneally) of the same compound?
The Screen test failure was 0%.

What does the source list for `COc1ccc2c(c1)C(Nc1ncnc3c1ncn3[C@H]1O[C@H](CO)[C@@H](O)[C@H]1O)CCC2` (stereo partly drawn) [Example 9, (S)-N^6-(7-methoxy-1-tetralinyl)-adenosine]?
change in MAP (Mean Arterial Pressure) ([1]; 3 mg/kg, Hour 5, conscious rat): 9%; Screen test failure ([2]; 3 mg/kg intraperitoneally): 11%; Screen test failure ([2]; 10 mg/kg intraperitoneally): 0%; Screen test failure ([2]; 30 mg/kg intraperitoneally): 11%

Which “change in HR (Heart Rate)” value ([1]; 10 mg/kg, Hour 9, conscious rat) does the source give for `OC[C@H]1O[C@@H](n2cnc3c(NC4CCCc5ccccc54)ncnc32)C(O)[C@@H]1O` (stereo in doubt) [Example 1, (R,S)-N^6-[1-Tetralinyl]-adenosine] here?
Its value is 0%.

What about the Screen test failure ([2]; 1 mg/kg intraperitoneally) of the same compound?
Its Screen test failure is 0%.

And the Screen test failure ([2]; 3 mg/kg intraperitoneally)?
Its Screen test failure is 0%.

What about the Screen test failure ([2]; 10 mg/kg intraperitoneally) of the same compound?
Its Screen test failure is 22%.

What about the Screen test failure ([2]; 30 mg/kg intraperitoneally) of the same compound?
The Screen test failure was 22%.

And the Screen test failure ([2]; 100 mg/kg intraperitoneally)?
The Screen test failure was 99%.
